Measured values reported in patent US11185528B2, “ALDA-1 treatment and prevention of pulmonary disease” (University of South Florida, priority 2018, dated 2021).

Legend:
ALDH2 [1] = biological target: T1, ALDH2 (Homo sapiens, UniProt P05091); test: ALDH2 enzymatic activity assay (340 nm) on mitochondrial lysate of HMVEC; assay type: cell-based
T1 construct: Cells obtained were human microvascular endothelial cells (HMVECs); endogenous in cells; host or cells: HMVEC / HMVEC-L (human lung microvascular endothelial cells)
T1 sequence (P05091 18-517): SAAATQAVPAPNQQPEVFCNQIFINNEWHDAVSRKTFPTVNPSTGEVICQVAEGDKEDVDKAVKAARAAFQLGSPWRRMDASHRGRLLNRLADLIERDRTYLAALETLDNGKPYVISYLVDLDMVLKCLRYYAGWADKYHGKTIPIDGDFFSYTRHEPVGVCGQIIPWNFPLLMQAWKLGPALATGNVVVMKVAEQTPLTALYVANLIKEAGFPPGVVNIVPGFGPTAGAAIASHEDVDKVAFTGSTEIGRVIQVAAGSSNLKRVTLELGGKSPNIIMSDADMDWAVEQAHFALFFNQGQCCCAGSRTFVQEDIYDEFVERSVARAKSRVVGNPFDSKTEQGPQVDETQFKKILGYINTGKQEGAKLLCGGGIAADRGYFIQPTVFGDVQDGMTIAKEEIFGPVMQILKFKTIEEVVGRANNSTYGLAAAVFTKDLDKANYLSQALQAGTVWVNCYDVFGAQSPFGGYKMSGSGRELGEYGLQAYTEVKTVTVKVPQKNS
Method: (§1) Cells obtained were human microvascular endothelial cells (HMVECs). Cell culture medium was EBM-2 containing 10% FBS plus antibiotics. Assays were MitoSOX, JC1, Histology, Western blot, and ALDH2 activity. Antibodies used were mouse anti-ALDH2 antibody, Cytochrome C, and Beclin (cell signaling).
(§2) HMVECs were seeded and, after reaching confluence, treated with DMSO and Alda-1. Cells were then exposed to normoxia or hyperoxia at different time points. After 24, 48, and 72 hours, cells were collected for mitochondrial analyses.
(§3) HMVEC's were preserved in EGM-2 MV media (Lonza, Wakersville, Md.) and supplemented with FBS (25 ml), Hydrocortisone (0.2 ml), hFGF-B (2.0 ml), VEGF (0.5 ml), R3 IGF-1 (0.5 ml), Ascorbic acid (0.5 ml), hEGF (0.5 ml), GA-1000 (0.5 ml) at 37° C. in a 5% carbon dioxide-humidified incubator to maintain sufficient cell growth. The cultured cells were validated for confluence (around 70%) and exposed to hyperoxia for 48 hours with and without Alda-1.
The enzymatic activity of ALDH2 was measured by transformation of acetaldehyde to acetic acid (Chen et al., 2008). The HMVEC-L cells were cultured as mentioned above, followed by 300 μl of buffer (10 mM DTT, 100 mM Tris-HCl pH 8.0, 20% glycerol, 1% Triton X-100) and centrifuged at 55000 g for 30 minutes at 4° C. […] The specificity of enzyme reaction was expressed as nmol NADH/minute/mg protein.

[2] = system: human microvascular endothelial cells (HMVEC); test: JC-1 staining, mitochondrial membrane potential; assay type: cell-based
Method: as §1, §2
HMVEC-L cells were maintained in a EGM-2 (Lonza) media supplemented with FBS (25 ml), Hydrocortisone (0.2 ml), hFGF-B (2.0 ml), VEGF (0.5 ml), R3 IGF-1 (0.5 ml), Ascorbic acid (0.5 ml), hEGF (0.5 ml), GA-1000 (0.5 ml) at 37° C. in a 5% carbon dioxide humidified incubator to maintain a sufficient cell growth. The HMVEC-L cells were plated at density of 1×10,000 cells in a cell view dish with glass bottom (Thomas scientific). When cells attained 70% confluency, they were exposed to hyperoxia for 48 hours with Alda-1 and without Alda-1. Following exposure to hyperoxia, the HMVEC-L cells were washed by HBSS solution (without Ca+ and Mg+) (Gibco). […] The live cell imaging was conducted using fluorescence microscopy (Olympus). The green and red images were captured in fluorescence and images were quantified by image J by red to green ratio.

cytochrome C = test: Western blot of whole cell lysate, cytochrome C; assay type: cell-based, human
Method: as §1, §2
The HMVEC-L cells were cultured and after reaching confluence (70%), were exposed to hyperoxia with or without Alda-1 for 48 hours. The concentration was determined by the proOX p100 sensor (Biospherix). After hyperoxia, the cell pellets were collected by centrifugation and the cell pellets were suspended in lysis buffer (20 mM Tris HCL, pH7.4, 150 mM Nacl, 0.5% Triton-x 100) and the supernatant was collected after centrifugation at high speed (14000 g) for 15 minutes at 4° C. The amount of protein was calculated by BCA assay kit (Pierce, Rockford, Ill.). […] The bands were developed by pierce EC1 (Thermo Fischer scientific) and films with protein bands were scanned and analyzed densitometrically by NIH ImageJ software. The ratio of protein to loading control was taken and analyzed in percentages.

Bax = test: Western blot of whole cell lysate, Bax; assay type: cell-based, human; settings: HMVEC pretreated with 20 μM, hyperoxia 48 hours, normalized to β-actin
Method: (§4) The HMVEC-L cells were cultured and after reaching confluence (70%), were exposed to hyperoxia with or without Alda-1 for 48 hours. The concentration was determined by the proOX p100 sensor (Biospherix). After hyperoxia, the cell pellets were collected by centrifugation and the cell pellets were suspended in lysis buffer (20 mM Tris HCL, pH7.4, 150 mM Nacl, 0.5% Triton-x 100) and the supernatant was collected after centrifugation at high speed (14000 g) for 15 minutes at 4° C. The amount of protein was calculated by BCA assay kit (Pierce, Rockford, Ill.). Equivalent amount of protein (15 μg) subjected to SDS-PAGE using between 4-20% tris-glycine gel (Bio-rad) after which electro transfer with PVDF membrane was performed, followed by blocking in 5% skim milk with washes with TBST. The membranes were treated with primary and secondary antibodies. The bands were developed by pierce EC1 (Thermo Fischer scientific) and films with protein bands were scanned and analyzed densitometrically by NIH ImageJ software. The ratio of protein to loading control was taken and analyzed in percentages.

ALDH2 [3] = test: Western blot of whole cell lysate, ALDH2 expression; assay type: cell-based, human; settings: HMVEC pretreated with 20 μM, hyperoxia 48 hours, normalized to β-actin
Method: as §4

[4] = system: human microvascular endothelial cells (HMVECs); test: MitoSOX mitochondrial ROS production; assay type: cell-based; settings: Example 1
Method: as §1, §2

4HNE = test: Oxidative stress assay, 4HNE adduct competitive ELISA on whole cell lysate; assay type: cell-based, human; settings: HMVEC pretreated with 20 μM, hyperoxia 48 hours
Method: as §3
The samples of whole cell lysate (50 μg) were seeded in each well. Oxidative stress was measured by an oxiselect 4HNE adduct competitive ELISA kit (Cell Biolabs), according to the instructions of kit.

[5] = system: hyperoxia-induced acute lung injury; test: Example 4: mice exposed to hyperoxia 48 hours, lung lysate immunoblot and BAL fluid analysis; assay type: in vivo, C57BL/6 mice; settings: 20 mM via alzet pumps
Method: C57BL/6 mice were exposed to hyperoxia for 48 hours with DMSO (Control) and Alda-1 (20 mM) via alzet pumps on the dorsal side of mice. The mice were divided into four groups: normoxia+DMSO (room air), normoxia+Alda-1, hyperoxia+DMSO, and hyperoxia+Alda-1. The lungs were harvested and the bronchoalveolar lavage (BAL) fluid was collected and analyzed by immunoblot and cytokine levels.

hyperoxia-induced damage = test: Example 5: mice exposed to hyperoxia 48 hours, lung lysate immunoblot; assay type: in vivo, C57BL/6 mice; settings: 20 μM via Alzet pumps
Method: C57BL/6 mice were pretreated with DMSO (control) and 20 μM Alda-1 (administered via Alzet pumps), then exposed to hyperoxia for 48 hours. The mice were divided into three groups: Room air, hyperoxia (48 hour)+DMSO, and hyperoxia (48 hour)+Alda-1. The lung tissues were harvested, and lysates evaluated by immunoblot analysis.

acute lung injury = test: Example 6: mice exposed to 100% oxygen 48 hours, BAL fluid, Diff Kwik staining, H&E staining, western blot; assay type: in vivo, C57BL/6 mice; settings: 20 μM via osmotic pumps
Method: The C57BL/6 mice were embedded with osmotic pumps and continuously injected with either DMSO or Alda-1 (20 μM), then they were exposed to 100% oxygen 48 hours. The lung samples, as well as Bronchial Alveolar Lavage Fluid, were collected for the evaluation of infiltration of cytokines, inflammation, autophagy, and apoptosis by Diff Kwik staining, H&E staining, and western blot.

[6] = HMVECs, Example 1, hyperoxia, 24 and 48 hours

## O=C(NCc1ccc2c(c1)OCO2)c1c(Cl)cccc1Cl [Alda-1, N-(1,3-Benzodioxol-5-ylmethyl)-2,6-dichlorobenzamid]
ALDH2 [1]; HMVEC mitochondrial extract, 20 μM, hyperoxia 48 hours
  increase in ALDH2 activity compared to hyperoxia without pretreatment: 45%
ALDH2 [1]; HMVECs, Example 1, during both normoxia and hyperoxia
  ALDH2 activity: elevated
[2]; HMVEC, 20 μM, hyperoxia 48 hours
  increase in mitochondrial membrane potential (JC-1 red to green ratio) compared to hyperoxia without treatment: 1.62 fold
[2]; [6]
  mitochondrial membrane potential: rescued
Cytochrome C; HMVEC pretreated with 20 μM, hyperoxia 48 hours, normalized to β-actin
  decrease in cytochrome C compared to hyperoxia without pretreatment: 64%
Cytochrome C; [6]
  Cytochrome C release: decreased
Bax
  decrease in Bax compared to hyperoxia without pretreatment: 25%
ALDH2 [3]
  effect on ALDH2 expression in hyperoxia: no effect
[4]
  mitochondrial ROS production: suppressed
4HNE
  decrease in 4HNE accumulation compared to untreated HMVEC exposed to hyperoxia: 26%
[5]
  Drp1 level in lung lysate vs DMSO: decreased levels
  OPA1 level in lung lysate vs DMSO: decreased levels
  infiltration of macrophages in BAL fluid vs DMSO: less infiltration
hyperoxia-induced damage
  PTEN-induced kinase 1 (PINK1) level vs hyperoxic controls: decrease
  mitofusin 1 (MFN1) level in lung lysates vs hyperoxia only: decreased levels
  mitofusin 2 (MFN2) level in lung lysates vs hyperoxia only: decreased levels
Acute lung injury
  LC3B (western blot): reduced
  NF-κB-p65 (western blot): reduced
  autophagy: decrease
  cytochrome C release (western blot): reduced
  cytokine and neutrophil infiltration and inflammation, DMSO mice vs Alda-1 mice: more cytokine and neutrophil infiltration and elevated inflammation than mice treated with Alda-1
  inflammation: decrease
  oxidative stress: decrease
